Patent US20210221848A1, “POLYMYXIN DERIVATIVES AND THEIR USE IN COMBINATION THERAPY TOGETHER WITH DIFFERENT ANTIBIOTICS” (priority 2014, published 2021)
Where two headings read alike, the source gives them in different places.

How the values were obtained:
[1] = test system: K. pneumoniae strains with elevated MICs to Polymyxin B; assay: MIC against strains with elevated MICs to Polymyxin B; assay type: cell-based, Klebsiella pneumoniae; details: Table 6D; for MIC K. pneumoniae 062: strain 062, elevated MIC to Polymyxin B; for MIC K. pneumoniae 063: strain 063, elevated MIC to Polymyxin B; for MIC K. pneumoniae 064: strain 064, elevated MIC to Polymyxin B; for MIC K. pneumoniae 655: strain 655, elevated MIC to Polymyxin B
Summary of the method: (§1)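 Values are modal MICs where compounds were tested repeatedly, otherwise the lower of duplicates agreeing within 2-fold, with greater variation rejected. Inoculum: isolated colonies from 18-24 h Mueller-Hinton agar, suspended directly to 0.5 McFarland.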

[2] = test system: A. baumannii
[3] = test system: K. pneumoniae
[4] = test system: P. aeruginosa strains with elevated MICs to Polymyxin B; assay: MIC against strains with elevated MICs to Polymyxin B; assay type: cell-based, Pseudomonas aeruginosa; details: Table 6D; for MIC P. aeruginosa 065: strain 065, elevated MIC to Polymyxin B; for MIC P. aeruginosa 066: strain 066, elevated MIC to Polymyxin B; for MIC P. aeruginosa 067: strain 067, elevated MIC to Polymyxin B
Summary of the method: as §1

[5] = test system: E. coli
[6] = test system: A. baumanii strains with elevated MICs to Polymyxin B; assay: MIC against strains with elevated MICs to Polymyxin B; assay type: cell-based, Acinetobacter baumannii; details: Table 6D; for MIC A. baumannii 053: strain 053, elevated MIC to Polymyxin B; for MIC A. baumannii 056: strain 056, elevated MIC to Polymyxin B; for MIC A. baumannii 068: strain 068, elevated MIC to Polymyxin B; for MIC A. baumannii 070: strain 070, elevated MIC to Polymyxin B
Summary of the method: as §1

[7] = test system: E. coli strains with elevated MICs to Polymyxin B; assay: as above; assay type: cell-based, Escherichia coli; details: Table 6D; for MIC E. coli 058: strain 058, elevated MIC to Polymyxin B; for MIC E. coli 059: strain 059, elevated MIC to Polymyxin B; for MIC E. coli 060: strain 060, elevated MIC to Polymyxin B; for MIC E. coli 061: strain 061, elevated MIC to Polymyxin B
Summary of the method: as §1

[8] = test system: P. aeruginosa
[9] = absence of a second agent, Table 6B

| Substance | MIC K. pneumoniae 062 [1] | MIC K. pneumoniae 063 [1] | MIC K. pneumoniae 064 [1] | MIC K. pneumoniae 655 [1] | MIC, A. baumannii ATCC BAA-747 ([2]; sole activity, Table 6C) | MIC, A. baumannii NCTC 13424 ([2]; sole activity, Table 6C) | MIC P. aeruginosa 065 [4] | MIC P. aeruginosa 066 [4] | MIC, E. coli ATCC 25922 ([5]; sole activity, Table 6C) | MIC A. baumannii 053 [6] | MIC A. baumannii 056 [6] | MIC A. baumannii 068 [6] | MIC A. baumannii 070 [6] | MIC E. coli 058 [7] | MIC E. coli 059 [7] | MIC E. coli 060 [7] | MIC E. coli 061 [7] | MIC, P. aeruginosa ATCC 27853 ([8]; sole activity, Table 6C) | MIC, P. aeruginosa CCUG 59347 ([8]; sole activity, Table 6C) | MIC P. aeruginosa 067 [4] | other results |
| --- | --- | --- | --- | --- | --- | --- | --- | --- | --- | --- | --- | --- | --- | --- | --- | --- | --- | --- | --- | --- | --- |
| cis-5- (benzylcarbamoyl) piperidine-3- carbonyl L-Thr-L- Dap-polymyxin B heptapeptide [Example D75] | 128 micrograms/mL | 64 micrograms/mL | 8 micrograms/mL | 64 micrograms/mL | 0.06 micrograms/mL | 0.125 micrograms/mL | 4 micrograms/mL | 8 micrograms/mL | 0.06 micrograms/mL | 64 micrograms/mL | 8 micrograms/mL | 16 micrograms/mL | 32 micrograms/mL | 4 micrograms/mL | 8 micrograms/mL | 4 micrograms/mL | 8 micrograms/mL | 0.5 micrograms/mL | 0.5 micrograms/mL | – | MIC, K. pneumoniae ATCC 4352 ([3]; sole activity, Table 6C): 0.06 micrograms/mL; MIC, K. pneumoniae ATCC BAA-2146 ([3]; sole activity, Table 6C): 0.125 micrograms/mL; MIC, E. coli NCTC 13441 ([5]; sole activity, Table 6C): 0.125 micrograms/mL |
| cis-5- (benzylcarbamoyl) piperidine-3- carbonyl Polymyxin B nonapeptide [Example D66] | 128 micrograms/mL | 64 micrograms/mL | 32 micrograms/mL | – | 0.25 micrograms/mL | 0.25 micrograms/mL | 16 micrograms/mL | 32 micrograms/mL | 0.125 micrograms/mL | >256 micrograms/mL | 128 micrograms/mL | 32 micrograms/mL | – | 8 micrograms/mL | 16 micrograms/mL | 8 micrograms/mL | 32 micrograms/mL | 0.5 micrograms/mL | 0.5 micrograms/mL | >256 micrograms/mL | MIC, K. pneumoniae ATCC 4352 ([3]; sole activity, Table 6C): 0.125 micrograms/mL; MIC, K. pneumoniae ATCC BAA-2146 ([3]; sole activity, Table 6C): 0.06 micrograms/mL; MIC, E. coli NCTC 13441 ([5]; sole activity, Table 6C): 0.125 micrograms/mL |
| cis-5- (isobutylcarbamoyl) piperidine-3- carbonyl L-Thr-L- Dap-polymyxin B heptapeptide [Example D81] | – | 64 micrograms/mL | 16 micrograms/mL | 64 micrograms/mL | 0.03 micrograms/mL | 0.06 micrograms/mL | 2 micrograms/mL | 16 micrograms/mL | 0.06 micrograms/mL | 128 micrograms/mL | 32 micrograms/mL | 32 micrograms/mL | 32 micrograms/mL | 8 micrograms/mL | 16 micrograms/mL | 8 micrograms/mL | 32 micrograms/mL | 0.25 micrograms/mL | 0.5 micrograms/mL | >128 micrograms/mL | MIC, K. pneumoniae ATCC 4352 ([3]; sole activity, Table 6C): 0.06 micrograms/mL; MIC, K. pneumoniae ATCC BAA-2146 ([3]; sole activity, Table 6C): 0.06 micrograms/mL |
| cis-5-cyclohexyl- piperidine-3- carbonyl L-Thr-L- Dap-polymyxin B heptapeptide [Example D85] | – | 64 micrograms/mL | 16 micrograms/mL | 32 micrograms/mL | 0.015 micrograms/mL | 0.06 micrograms/mL | 4 micrograms/mL | 16 micrograms/mL | 0.06 micrograms/mL | 64 micrograms/mL | 4 micrograms/mL | 8 micrograms/mL | 8 micrograms/mL | 2 micrograms/mL | 16 micrograms/mL | 4 micrograms/mL | 16 micrograms/mL | 0.125 micrograms/mL | 0.25 micrograms/mL | >128 micrograms/mL | MIC, K. pneumoniae ATCC 4352 ([3]; sole activity, Table 6C): 0.06 micrograms/mL; MIC, E. coli NCTC 13441 ([5]; sole activity, Table 6C): 0.125 micrograms/mL |
| trans-4- octylpyrrolidine-3- carbonyl polymyxin B nonapeptide [Example D30] | – | 4 micrograms/mL | 1 micrograms/mL | 2 micrograms/mL | – | – | 0.5 micrograms/mL | 0.5 micrograms/mL | – | 16 micrograms/mL | 8 micrograms/mL | 2 micrograms/mL | 1 micrograms/mL | 1 micrograms/mL | 1 micrograms/mL | 1 micrograms/mL | 4 micrograms/mL | – | – | 16 micrograms/mL | MIC, A. baumannii ATCC BAA-747 [2, 9]: 1 micrograms/mL; MIC, A. baumannii NCTC 13424 [2, 9]: 2 micrograms/mL; MIC, K. pneumoniae ATCC 4352 [3, 9]: 1 micrograms/mL; MIC, E. coli ATCC 25922 [5, 9]: 2 micrograms/mL; MIC, E. coli NCTC 13441 [5, 9]: 2 micrograms/mL; MIC, P. aeruginosa ATCC 27853 [8, 9]: 1 micrograms/mL; MIC, P. aeruginosa CCUG 59347 [8, 9]: 1 micrograms/mL |
| trans-4- octylpyrrolidine-3- carbonyl polymyxin B nonapeptide [Example D31] | 64 micrograms/mL | >128 micrograms/mL | 64 micrograms/mL | >256 micrograms/mL | – | – | 16 micrograms/mL | 32 micrograms/mL | – | >128 micrograms/mL | 64 micrograms/mL | 4 micrograms/mL | 4 micrograms/mL | 2 micrograms/mL | 8 micrograms/mL | 4 micrograms/mL | 16 micrograms/mL | – | – | >64 micrograms/mL | MIC, A. baumannii ATCC BAA-747 [2, 9]: 1 micrograms/mL; MIC, A. baumannii NCTC 13424 [2, 9]: 2 micrograms/mL; MIC, K. pneumoniae ATCC 4352 [3, 9]: 0.5 micrograms/mL; MIC, E. coli ATCC 25922 [5, 9]: 2 micrograms/mL; MIC, E. coli NCTC 13441 [5, 9]: 1 micrograms/mL; MIC, P. aeruginosa ATCC 27853 [8, 9]: 0.5 micrograms/mL; MIC, P. aeruginosa CCUG 59347 [8, 9]: 1 micrograms/mL |
| trans-4- octylpyrrolidine- 3-carbonyl L-Thr- L-Dap-polymyxin B heptapeptide [Example D89] | 8 micrograms/mL | 4 micrograms/mL | 1 micrograms/mL | 8 micrograms/mL | 0.5 micrograms/mL | 0.5 micrograms/mL | 0.5 micrograms/mL | 1 micrograms/mL | 0.5 micrograms/mL | 8 micrograms/mL | 4 micrograms/mL | 0.5 micrograms/mL | 0.5 micrograms/mL | 1 micrograms/mL | 1 micrograms/mL | 0.5 micrograms/mL | 2 micrograms/mL | 0.5 micrograms/mL | 1 micrograms/mL | 16 micrograms/mL | MIC, K. pneumoniae ATCC BAA-2146 ([3]; sole activity, Table 6C): 0.5 micrograms/mL; MIC, E. coli NCTC 13441 ([5]; sole activity, Table 6C): 0.125 micrograms/mL |
